# Measured values reported in ChEMBL document CHEMBL4152181, “Resolvins as proresolving inflammatory mediators in cardiovascular disease” (Eur J Med Chem, 2018).
# Test: Half life in air at 10 to 20 ug by HPLC analysis
# Format: physicochemical
row,half-life,Compound
1,1.5 h,CC[C@@H](O)/C=C/C=C\C/C=C\C/C=C\C=C\[C@@H](O)CCCC(=O)O
2,35 h,CC[C@@H](O)/C=C/C=C\C[C@H]1C[C@H]1C/C=C\C=C\[C@@H](O)CCCC(=O)O
3,35 h,CC[C@@H](O)/C=C/C=C\C[C@@H]1C[C@@H]1C/C=C\C=C\[C@@H](O)CCCC(=O)O
